{"source": "patent US7459481B2", "about": "“Stimulation of CPT-1 as a means to reduce weight” (The Johns Hopkins University School of Medicine Licensing …, priority 2002, dated 2008)", "key": {"[1]": {"tested_on": "3T3-L1 adipocytes", "assay": "Fatty acid oxidation in differentiated 3T3-L1 adipocytes", "assay_type": "cell-based, mouse", "conditions": "20 μg/ml or greater, 2 hours, FIG. 6", "protocol": "Human breast cancer cell line MCF-7 was obtained from the American Type Culture Collection. 1×10^6 MCF-7 cells were plated in T-25 flasks in triplicate and incubated overnight at 37° C. Drugs were then added as indicated diluted from 5 mg/ml stock in DMSO. After 2 hours, medium with drugs was removed and cells were preincubated for 30 min. with 1.5 ml of the following buffer: 114 mM NaCl, 4.7 mM KCl, 1.2 mM KH2PO4, 1.2 mM MgSO4, glucose 11 mM. After preincubation, 200 μl of assay buffer was added containing: 114 mM NaCl, 4.7 mM KCl, 1.2 mM KH2PO4, 1.2 mM MgSO4, glucose 11 mM, 2.5 mM palmitate (containing with 10 μCi of [1-^14C]palmitate) bound to albumin, 0.8 mM L-carnitine, and cells were incubated at 37° C. for 2 h. […] The flasks with wells were then incubated for 2 h at 37° C. after which the benzothonium hydrochloride was removed and counted for ^14C. […]\n(§1) To expand the study of effects of C75 on fatty acid metabolism beyond cancer cell lines to normal adipocytes, differentiated (non-transformed) mouse NIH 3T3-L1 adipocytes were used in assays similar to those performed with the MCF-7 cells. […] The differentiated cells were ready to be used for experiments in 7-10 days.\n(§2) C75 increased CPT-1 activity and fatty acid metabolism in the NIH 3T3-L1 cells differentiated into adipocytes. […] CPT-1 activity, fatty acid oxidation, and total cellular ATP were measured as described in Examples 2, 1, and 4. […]"}, "[2]": {"assay": "Respiratory exchange ratio by indirect calorimetry (Oxymax) in mice", "assay_type": "in vivo", "protocol": "In keeping with the C75 effect on both human and murine CPT-1 and fatty acid metabolism, C75 induces a profound and rapid stimulation of fatty acid oxidation in vivo. Mice were maintained in the Oxymax calorimeter (Oxymax Equal Flow System®, Columbus Instruments, Columbus, Ohio). Oxygen consumption and CO2 production was measured in up to four mice simultaneously using the indirect calorimeter. Measurements were recorded every 15 minutes over the entire course of the experiments. The respiratory exchange ratio (RER) was calculated by the Oxymax® software version 5.9. RER is defined as the ratio of CO2 to O2 at any given time irrespective if equilibrium was reached. Mice were maintained on water and mouse chow ad libitum. In the control mice (FIG. 8A), note the diurnal variation of RER indicating feeding and resting cycles of the animals. An RER of 1 is consistent with oxidation of carbohydrates while 0.7 indicates oxidation of fatty acids. […] C75 treatment at 30 mg/kg disrupts the diurnal pattern of the control mice, showing a rapid drop in RER to complete oxidation of fatty acids within about 2 hours. […] Importantly, the rate of decline of RER was similar to that observed for animals deprived of food (data not shown)."}, "[3]": {"tested_on": "3T3-L1 adipocytes", "assay": "Total cellular ATP in differentiated 3T3-L1 adipocytes", "assay_type": "cell-based, mouse", "conditions": "20 μg/ml or greater, 2 hours, FIG. 7", "protocol": "(§3) 1×10^5 MCF-7 cells were plated in 96 well plates. Cells were treated with C75 or vehicle. After 2 hours, ATP was measured using a luciferase assay using the ATP Bioluminescence Kit CLS II (Roche) following the manufacturer's protocol. Plates were read by a Perkin Elmer Wallac Victor^2 1420 luminometer. […] Similar results were obtained after 1 hr incubation with C75. Thus, cellular energy production increased as a result of C75 increasing fatty acid oxidation.\nTo expand the study of effects of C75 on fatty acid metabolism beyond cancer cell lines to normal adipocytes, differentiated (non-transformed) mouse NIH 3T3-L1 adipocytes were used in assays similar to those performed with the MCF-7 cells. 3T3-L1 cells were obtained from the American Type Culture Collection, and cells were cultured in DMEM with high glucose (4.5 g/l ) (Gibco 12100-046) with 10% fetal calf serum and Biotin (Sigma B-4639) 0.008 g/L. Differentiation was initiated three days after the cells were confluent, when the standard culture medium was replaced with differentiation medium. […] The differentiated cells were ready to be used for experiments in 7-10 days.\nas §2"}, "[4]": {"tested_on": "MCF-7 cells", "assay": "Total cellular ATP (luciferase assay) in MCF-7 cells", "assay_type": "cell-based, human", "conditions": "MCF-7, 10 μg/ml and 20 μg/ml, 2 hours, FIG. 5", "protocol": "as §3"}, "[5]": {"tested_on": "CPT-1", "assay": "CPT-1 activity in differentiated 3T3-L1 adipocytes", "assay_type": "cell-based, mouse", "conditions": "2 hours", "protocol": "CPT-1 activity was assayed in MCF-7 cells by the following published procedure: MCF-7 cells were plated in DMEM with 10% fetal bovine serum at 10^6 cells in 24-well plates in triplicate. Following overnight incubation at 37° C., the medium was removed and replaced with 700 μl of assay medium consisting of: 50 mM imidazole, 70 mM KCl, 80 mM sucrose, 1 mM EGTA, 2 mM MgCl2, 1 mM DTT, 1 mM KCN, 1 mM ATP, 0.1% fatty acid free bovine serum albumin, 70 μM palmitoyl-CoA, 0.25 μCi [methyl-^14C]L-carnitine, 40 μg digitonin with or without 20 μM malonyl-CoA. After incubation for 6 minutes at 37° C., the reaction was stopped by the addition of 500 μl of ice-cold 4 M perchloric acid. Cells were then harvested and centrifuged at 13,000×g for 5 min. […] The butanol phase was counted by liquid scintillation and represents the acylcarnitine derivative.\nas §1, §2"}}}
{"smiles": "C=C1C(=O)OC(CCCCCCCC)C1C(=O)O", "note": "(stereo not drawn) [Compound C75]", "values": [{"measurement": "fatty acid oxidation", "setting": "[1]", "result": "significantly increased"}, {"measurement": "time for RER drop to oxidation of fatty acids", "setting": "[2]; 30 mg/kg", "result": "≤ 2", "unit": "h"}, {"measurement": "respiratory exchange ratio (RER) after treatment", "setting": "[2]; FIG. 8B", "result": "~0.7"}, {"measurement": "levels of ATP", "setting": "[3]", "result": "significantly increased"}, {"measurement": "total cellular ATP", "setting": "[4]", "result": "significant increase"}, {"measurement": "increase in CPT-1 activity above control", "setting": "[5]", "result": 377, "unit": "%"}]}
